Measured values published in publication PMC9848300, “Discovery of novel enasidenib analogues targeting inhibition of mutant isocitrate dehydrogenase 2 as antileukaemic agents” (Journal of Enzyme Inhibition and Medicinal Chemistry, 2023).
Like-named read-outs stand apart in the source and are kept apart here.

What was measured:
UO-31 = test: NCI 60 antitumor screening (single dose / five doses); format: cell-based; details: Homo sapiens; UO-31 (renal cancer), single dose 10 μM; read-out: Growth inhibition percentage (GI %)
HT29 = test: as above; format: cell-based, human; details: Homo sapiens
SW-620 = test: as above; format: cell-based, human; details: Homo sapiens
K-562 = test: as above; format: cell-based; details: Homo sapiens
HCT-15 = test: as above; format: cell-based; details: Homo sapiens
RPMI-8226 = test: as above; format: cell-based; details: Homo sapiens
UACC-257 = test: as above; format: cell-based; details: Homo sapiens
RXF 393 = test: as above; format: cell-based; details: Homo sapiens
MDA-MB-468 = test: as above; format: cell-based; details: Homo sapiens
HL-60(TB) = test: as above; format: cell-based; details: Homo sapiens
MDA-MB-231/ATCC = test: as above; format: cell-based; details: Homo sapiens
MOLT-4 = test: as above; format: cell-based; details: Homo sapiens
IGROV1 = test: as above; format: cell-based; details: Homo sapiens
SK-MEL-5 = test: as above; format: cell-based; details: Homo sapiens
ACHN = test: as above; format: cell-based; details: Homo sapiens, read-out: Growth inhibition percentage (GI %)
UACC-62 = test: as above; format: cell-based; details: Homo sapiens
786-0 = test: as above; format: cell-based; details: Homo sapiens
BT-549 = test: as above; format: cell-based; details: Homo sapiens
LOX IMVI = test: as above; format: cell-based; details: Homo sapiens, read-out: Growth inhibition percentage (GI %)
COLO 205 = test: as above; format: cell-based; details: Homo sapiens
SF-295 = test: as above; format: cell-based; details: Homo sapiens
EKVX = test: as above; format: cell-based; details: Homo sapiens, read-out: Growth inhibition percentage (GI %)
HOP-62 = test: NCI 60 antitumor screening (single dose); format: cell-based; details: Homo sapiens; HOP-62 (non-small cell lung cancer), single dose 10 μM; read-out: Growth inhibition percentage (GI %)
How it was run: (§1)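 NCI-60 one-dose screen. Dose: 10 μM. Lines: 60 human tumour lines, nine tissue types. Output: GI% = 100 − G%.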

PC-3 = test: NCI 60 antitumor screening (single dose); format: cell-based; details: Homo sapiens; PC-3 (prostate cancer), single dose 10 μM; read-out: Growth inhibition percentage (GI %)
How it was run: (§2)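 Single-dose NCI protocol, 10 μM, triplicate. Readout G%; GI% = 100 − G%.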

OVCAR-8 = test: NCI 60 antitumor screening (single dose); format: cell-based; details: Homo sapiens; OVCAR-8 (ovarian cancer), single dose 10 μM; read-out: Growth inhibition percentage (GI %)
How it was run: as §2

NCI-H460 = test: NCI 60 antitumor screening (single dose); format: cell-based; details: Homo sapiens; NCI-H460 (non-small cell lung cancer), single dose 10 μM; read-out: Growth inhibition percentage (GI %)
How it was run: as §1

HCC-2998 = test: NCI 60 antitumor screening (single dose); format: cell-based; details: Homo sapiens; HCC-2998 (colon cancer), single dose 10 μM; read-out: Growth inhibition percentage (GI %)
How it was run: as §1

TK-10 = test: NCI 60 antitumor screening (single dose); format: cell-based; details: Homo sapiens; TK-10 (renal cancer), single dose 10 μM; read-out: Growth inhibition percentage (GI %)
How it was run: as §2

[1] = HT-29, HT29 (colon cancer), single dose 10 μM, read-out: Growth inhibition percentage (GI %)
[2] = SW-620 (colon cancer), single dose 10 μM, read-out: Growth inhibition percentage (GI %)
[3] = K562, K-562 (leukaemia), single dose 10 μM, read-out: Growth inhibition percentage (GI %)
[4] = HCT-15 (colon cancer), single dose 10 μM, read-out: Growth inhibition percentage (GI %)
[5] = RPMI-8226 (leukaemia), single dose 10 μM, read-out: Growth inhibition percentage (GI %)
[6] = UACC-257 (melanoma), single dose 10 μM, read-out: Growth inhibition percentage (GI %)
[7] = RXF 393 (renal cancer), single dose 10 μM, read-out: Growth inhibition percentage (GI %)
[8] = MDA-MB-468 (breast cancer), single dose 10 μM, read-out: Growth inhibition percentage (GI %)
[9] = HL-60(TB) (leukaemia), single dose 10 μM, read-out: Growth inhibition percentage (GI %)
[10] = MDA-MB-231/ATCC (breast cancer), single dose 10 μM, read-out: Growth inhibition percentage (GI %)
[11] = MOLT-4 (leukaemia), single dose 10 μM, read-out: Growth inhibition percentage (GI %)
[12] = IGROV-1, IGROV1 (ovarian cancer), single dose 10 μM, read-out: Growth inhibition percentage (GI %)
[13] = SK-MEL-5 (melanoma), single dose 10 μM, read-out: Growth inhibition percentage (GI %)
[14] = ACHN (renal cancer), single dose 10 μM
[15] = UACC-62 (melanoma), single dose 10 μM, read-out: Growth inhibition percentage (GI %)
[16] = 786-0, 786-0 (renal cancer), single dose 10 μM, read-out: Growth inhibition percentage (GI %)
[17] = LOX IMVI (melanoma), single dose 10 μM
[18] = COLO 205 (colon cancer), single dose 10 μM, read-out: Growth inhibition percentage (GI %)
[19] = SF-295 (CNS cancer), single dose 10 μM, read-out: Growth inhibition percentage (GI %)
[20] = EKVX (non-small cell lung cancer), single dose 10 μM

## Clc1cccc(/C=N/Nc2nc(N/N=C/c3cccc(Cl)c3Cl)nc(N3CCOCC3)n2)c1Cl [compound 6h, 2,4-Bis[(E)-2-[(2,3-Dichlorophenyl)methylidene]hydrazin-1-yl]-6-(morpholin-4-yl)-1,3,5-triazine]
UO-31
  inhibition at 10 µM: 16.1%
HT29; [1]
  inhibition at 10 µM: 12.9%
SW-620; [2]
  inhibition at 10 µM: -6.25%
K-562; [3]
  inhibition at 10 µM: 38.6%
HCT-15; [4]
  inhibition at 10 µM: 15.2%
RPMI-8226; [5]
  inhibition at 10 µM: 12.1%
UACC-257; [6]
  inhibition at 10 µM: -9.57%
RXF 393; [7]
  inhibition at 10 µM: 5.06%
MDA-MB-468; [8]
  inhibition at 10 µM: 32.8%
HL-60(TB); [9]
  inhibition at 10 µM: -3.95%
MDA-MB-231/ATCC; [10]
  inhibition at 10 µM: 13.8%
MOLT-4; [11]
  inhibition at 10 µM: 16.1%
IGROV1; [12]
  inhibition at 10 µM: 11.2%
SK-MEL-5; [13]
  inhibition at 10 µM: 15.5%
ACHN; [14]
  inhibition at 10 µM: -7.98%
UACC-62; [15]
  inhibition at 10 µM: 11.3%
786-0; [16]
  inhibition at 10 µM: 1.86%
BT-549; BT-549 (breast cancer), single dose 10 μM, read-out: Growth inhibition percentage (GI %)
  inhibition at 10 µM: 0.16%
LOX IMVI; [17]
  inhibition at 10 µM: 31.6%
COLO 205; [18]
  inhibition at 10 µM: 7.98%
SF-295; [19]
  inhibition at 10 µM: 18%
EKVX; [20]
  inhibition at 10 µM: 24.4%
HOP-62
  inhibition at 10 µM: -3.7%
PC-3
  inhibition at 10 µM: 14.5%
OVCAR-8
  inhibition at 10 µM: 44.6%
NCI-H460
  inhibition at 10 µM: -0.07%
HCC-2998
  inhibition at 10 µM: -6.13%
TK-10
  inhibition at 10 µM: -29.2%

## C/C(=N\Nc1nc(N/N=C(\C)c2ccc([N+](=O)[O-])cc2)nc(N2CCOCC2)n1)c1ccc([N+](=O)[O-])cc1 [compound 8a, 2-(Morpholin-4-yl)-4,6-bis[(E)-2-[1–(4-nitrophenyl)ethylidene]hydrazin-1-yl]-1,3,5-triazine]
HT29; HT-29, read-out: Growth inhibition percentage (GI %)
  inhibition at 10 µM: 19.4%
SW-620; SW-620, read-out: Growth inhibition percentage (GI %)
  inhibition at 10 µM: 4.48%
K-562; K562, read-out: Growth inhibition percentage (GI %)
  inhibition at 10 µM: 20.3%
HCT-15; HCT-15, read-out: Growth inhibition percentage (GI %)
  inhibition at 10 µM: 33.9%
RPMI-8226; RPMI-8226, read-out: Growth inhibition percentage (GI %)
  inhibition at 10 µM: 35.3%
UACC-257; UACC-257, read-out: Growth inhibition percentage (GI %)
  inhibition at 10 µM: 0.81%
RXF 393; RXF 393, read-out: Growth inhibition percentage (GI %)
  inhibition at 10 µM: 26.3%
MDA-MB-468; MDA-MB-468, read-out: Growth inhibition percentage (GI %)
  inhibition at 10 µM: 20.4%
HL-60(TB); HL-60, read-out: Growth inhibition percentage (GI %)
  inhibition at 10 µM: 7.4%
MDA-MB-231/ATCC; MDA-MB-231, read-out: Growth inhibition percentage (GI %)
  inhibition at 10 µM: 56.5%
MOLT-4; MOLT-4, read-out: Growth inhibition percentage (GI %)
  inhibition at 10 µM: 21.1%
IGROV1; IGROV-1, read-out: Growth inhibition percentage (GI %)
  inhibition at 10 µM: 6.22%
SK-MEL-5; SK-MEL-5, read-out: Growth inhibition percentage (GI %)
  inhibition at 10 µM: 32.9%
ACHN; ACHN
  inhibition at 10 µM: 22.1%
UACC-62; UACC-62, read-out: Growth inhibition percentage (GI %)
  inhibition at 10 µM: 14.7%
786-0; 786-0, read-out: Growth inhibition percentage (GI %)
  inhibition at 10 µM: 33.1%
BT-549; BT-549, read-out: Growth inhibition percentage (GI %)
  inhibition at 10 µM: 32.7%
LOX IMVI; LOX IMVI
  inhibition at 10 µM: 61.1%
COLO 205; COLO 205, read-out: Growth inhibition percentage (GI %)
  inhibition at 10 µM: 5.21%
SF-295; SF-295, read-out: Growth inhibition percentage (GI %)
  inhibition at 10 µM: 33.5%
EKVX; EKVX
  inhibition at 10 µM: 31.9%
HOP-62
  inhibition at 10 µM: 13.8%
PC-3
  inhibition at 10 µM: 23.4%
OVCAR-8
  inhibition at 10 µM: 36.4%
NCI-H460
  inhibition at 10 µM: 21.9%
HCC-2998
  inhibition at 10 µM: 3.95%
TK-10
  inhibition at 10 µM: 19.2%

## Oc1ccccc1/C=N/Nc1nc(N/N=C/c2ccccc2O)nc(N2CCCCC2)n1 [compound 7a, 2-[(1e)-(2-{4-[(E)-2-[(2-Hydroxyphenyl)methylidene]hydrazin-1-yl]-6-(piperidin-1-yl)-1,3,5-triazin-2-yl}hydrazin-1-ylidene)methyl] phenol]
UO-31
  inhibition at 10 µM: 51.7%
HT29; [1]
  inhibition at 10 µM: 54.7%
SW-620; [2]
  inhibition at 10 µM: 32.2%
K-562; [3]
  inhibition at 10 µM: 61.8%
HCT-15; [4]
  inhibition at 10 µM: 22.6%
RPMI-8226; [5]
  inhibition at 10 µM: 57.4%
UACC-257; [6]
  inhibition at 10 µM: 20.9%
RXF 393; [7]
  inhibition at 10 µM: 17%
MDA-MB-468; [8]
  inhibition at 10 µM: 36.2%
HL-60(TB); [9]
  inhibition at 10 µM: 52.6%
MDA-MB-231/ATCC; [10]
  inhibition at 10 µM: 34.5%
MOLT-4; [11]
  inhibition at 10 µM: 59.1%
IGROV1; [12]
  inhibition at 10 µM: 54.8%
SK-MEL-5; [13]
  inhibition at 10 µM: 25.6%
ACHN; [14]
  inhibition at 10 µM: 63.1%
UACC-62; [15]
  inhibition at 10 µM: 29.7%
786-0; [16]
  inhibition at 10 µM: 26.8%
LOX IMVI; [17]
  inhibition at 10 µM: 60.3%
COLO 205; [18]
  inhibition at 10 µM: 75.5%
SF-295; [19]
  inhibition at 10 µM: 47.4%
EKVX; [20]
  inhibition at 10 µM: 69.9%
HOP-62
  inhibition at 10 µM: 44.2%
PC-3
  inhibition at 10 µM: 55.2%
OVCAR-8
  inhibition at 10 µM: 50.4%
NCI-H460
  inhibition at 10 µM: 60.5%
HCC-2998
  inhibition at 10 µM: 60.4%
TK-10
  inhibition at 10 µM: 2.29%
